Values after ≈ are worked out from the molar mass of the structure shown. Peptide text beside a SMILES is read from it. * marks the point of attachment. Cbz = O=C(OCc1ccccc1)*
Tests used:
Format in all cases: cell-based
[1] = test system: M. smegmatis; assay: microbe, parasite or virus in culture
[2] = test system: Mycobacterium bovis BCG; assay: microbe, parasite or virus in culture
[3] = test system: M. tuberculosis H37Rv; assay: microbe, parasite or virus in culture; settings: Mycobacterium tuberculosis, 120 h
[4] = test system: caseinolytic protease substrate WhiB1 (M. smegmatis pTet-GFP-WhiB1)
[5] = test system: M. smegmatis
[6] = test system: WT M. smegmatis; settings: subinhibitory, 24 h, OD600

| SMILES | Growth inhibition of WT M. smegmatis, in words [1] | Growth inhibition of WT M. bovis, in words [2] | also measured |
| --- | --- | --- | --- |
| CC(C)C[C@H](NC(=O)CNC(=O)c1cc(Cl)ccc1Cl)B(O)O [MNL-2238] | weaker growth inhibition | – | – |
| CC(C)C[C@H](NC(=O)[C@@H](NC(=O)c1cccc(-c2ccccc2)n1)[C@@H](C)O)B(O)O [CEP-18770] | same potent growth inhibition as BZ | strongest growth inhibition | – |
| CC(C)C[C@H](NC(=O)[C@H](Cc1ccccc1)NC(=O)c1cnccn1)B(O)O [compound 100, bortezomib] | showed an effect | strongest growth inhibition | MIC50 ([2]; Mycobacterium tuberculosis variant bovis BCG, BCG, 120 h): 0.3 µM (≈ 0.115 µg/mL); MIC50 [3]: 0.8 µM (≈ 0.307 µg/mL); MIC50 ([1]; Mycolicibacterium smegmatis, 24 h): 4 µM (≈ 1.54 µg/mL); GFP-WhiB1 fluorescence [4]: increased fluorescence in a dose-dependent manner; MBC90 (minimum bactericidal concentration that kills 90% of an initial inoculum) [5]: 30 µM; Growth inhibition in combination with amikacin ([6]; BZ 1.5 µM + amikacin 0.4 µM): complete growth inhibition; Potentiation of chloramphenicol ([6]; BZ 1.5 µM + chloramphenicol 4.5 µM): no potentiation effect; Growth inhibition in combination with streptomycin ([6]; BZ 1.5 µM + streptomycin 0.05 µM): complete growth inhibition |
| CC(C)C[C@@H](C=O)NC(=O)[C@H](CC(C)C)NC(=O)[C@H](CC(C)C)NC(=O)OCc1ccccc1 [MG-132] (Cbz-Leu-Leu-Leu-aldehyde) | completely abrogated | no response | – |
| CC(C)C[C@H](NC(=O)CNC(=O)c1cc(Cl)ccc1Cl)B1OC(=O)C(CC(=O)O)(CC(=O)O)O1 [MNL-9708] | active | – | – |
